Results on one molecule are retold here after patent publication US20130085182A1, “SODIUM 2-MERCAPTOETHANE SULFONATE FOR USE IN THE TREATMENT OF LUMBAR PAIN” (UNIVERSITA' CAMPUS BIO-MEDICO DI ROMA, priority 2010, published 2013).

Common to all, as to assay type: in vivo, human
Experiment [1] has as its system patients suffering from FBSS (lumbar pain). Description: Clinical study: lumbar rachis functionality by Oswestry Disability Index (ODI). Conditions: 11 FBSS patients; epidural 1 ml of 50 or 100 mg/ml; +1 week; before the procedure 52.18%; P=0.05. The source says:
11 patients (7 males and 4 females), of ages ranging between 48 and 78 years, and suffering from FBSS, were studied (according to the operative diagram in FIG. 1) for a 9-month period. As criteria for inclusion in the treatment protocol were considered: • failed back surgery syndrome (FBSS) • lumbar pain present for >3 months • absence of improvement of pain with administration of oral pharmacological analgesics/opioids-based therapy; • non-eligibility for lumbar revision surgery treatment. • patients refusing treatment; • carriers of infections localized at the level of the infiltration site; • undergoing systemic infective processes; • coagulation alterations. After having been evaluated under the clinical instrumental standpoint, the patient was subjected to infiltrative treatment upon coagulation testing and replacement of oral anticoagulant therapy (possibly taken by the patient), with low molecular weight heparin. […] In particular, we asked to assign a value (comprised between 0 and 10) to pain intensity in a standing position, in horizontal posture, and while sitting; evaluation of the 3 parameters helped us in pain classification, and was aimed at determining musculoskeletal and gravity activation at different instants and the quantitative impact on pain intensity caused by the assuming of the different positions. […]

Experiment [2] shares this test system. The experiment in a line: Clinical study: functional improvement by Odom's criteria. The following applies: out of 11 FBSS patients; after epidural infiltration. An excerpt: 11 patients (7 males and 4 females), of ages ranging between 48 and 78 years, and suffering from FBSS, were studied (according to the operative diagram in FIG. 1) for a 9-month period. As criteria for inclusion in the treatment protocol were considered: • failed back surgery syndrome (FBSS) • lumbar pain present for >3 months • absence of improvement of pain with administration of oral pharmacological analgesics/opioids-based therapy; • non-eligibility for lumbar revision surgery treatment. • patients refusing treatment; • carriers of infections localized at the level of the infiltration site; • undergoing systemic infective processes; • coagulation alterations. After having been evaluated under the clinical instrumental standpoint, the patient was subjected to infiltrative treatment upon coagulation testing and replacement of oral anticoagulant therapy (possibly taken by the patient), with low molecular weight heparin. Infiltration was conducted in Day Surgery regimen, inviting the patient to have it on an empty stomach. […] The drug at issue, sodium 2-mercaptoethansulfonate, was contained in an ampoule with a 10% concentration; for each infiltration, 1 ml was collected and the concentration used was of 50 mg/ml in some cases and of 100 mg/ml in other cases. The entire infiltration procedure required 10-15 min. Of the 11 patients, 2 had already undergone 3 surgical interventions to the lumbar rachis, other 2 had undergone 2 interventions, and 7 had undergone 1 intervention. In particular, 4 had undergone an herniectomy, 2 an hemilaminectomy, 2 an herniectomy plus an hemilaminectomy and 3 a vertebral stabilization intervention. The levels involved were comprised between L1 and S1, with an extension range of 2 to 5 levels. Each patient was subjected, on average, to 2 (range comprised between 1 and 4) peridural infiltrations of sodium 2 mercaptoethane sulfonate (FIG. 2).

Experiment [3] shares this test system. Description: Clinical study: pain evaluation by Numeric Rating Scales (NRS) after peridural infiltration. Conditions: 11 FBSS patients, epidural 1 ml of 50 or 100 mg/ml, +1 week. An excerpt: 11 patients (7 males and 4 females), of ages ranging between 48 and 78 years, and suffering from FBSS, were studied (according to the operative diagram in FIG. 1) for a 9-month period. As criteria for inclusion in the treatment protocol were considered: • failed back surgery syndrome (FBSS) • lumbar pain present for >3 months • absence of improvement of pain with administration of oral pharmacological analgesics/opioids-based therapy; • non-eligibility for lumbar revision surgery treatment. • patients refusing treatment; • carriers of infections localized at the level of the infiltration site; • undergoing systemic infective processes; • coagulation alterations. After having been evaluated under the clinical instrumental standpoint, the patient was subjected to infiltrative treatment upon coagulation testing and replacement of oral anticoagulant therapy (possibly taken by the patient), with low molecular weight heparin. Infiltration was conducted in Day Surgery regimen, inviting the patient to have it on an empty stomach. […] The drug at issue, sodium 2-mercaptoethansulfonate, was contained in an ampoule with a 10% concentration; for each infiltration, 1 ml was collected and the concentration used was of 50 mg/ml in some cases and of 100 mg/ml in other cases. The entire infiltration procedure required 10-15 min. Of the 11 patients, 2 had already undergone 3 surgical interventions to the lumbar rachis, other 2 had undergone 2 interventions, and 7 had undergone 1 intervention. […] In particular, we asked to assign a value (comprised between 0 and 10) to pain intensity in a standing position, in horizontal posture, and while sitting; evaluation of the 3 parameters helped us in pain classification, and was aimed at determining musculoskeletal and gravity activation at different instants and the quantitative impact on pain intensity caused by the assuming of the different positions. […] To the first answer a score equal to 0 was assigned, to the second one equal to 1, and so on until the sixth answer that would be equal to 5. the score is calculated as follows: TOTAL SCORE/(5×9)×100.

For the molecule `O=S(=O)([O-])CCS.[Na+]` [sodium 2-mercaptoethane sulfonate, Sodium 2-mercaptoethane sulfonate], the “Oswestry Disability Index (ODI), average after the procedure” value in experiment [1] amounted to 41.64%. Further, in experiment [2], the “Odom's criteria: number of patients with Excellent result” value was found to be 0 patients, the “Odom's criteria: number of patients with Fair result” value was found to be 4 patients, the “Odom's criteria: number of patients with Good result” value is on record as 7 patients and the “Odom's criteria: number of patients with Poor result” value is given as 0 patients. Also, in experiment [2], the “Odom's criteria: share of patients with Fair result” value turned out to be 36.4% and the “Odom's criteria: share of patients with Good result” value is 63.6%. The “mean pain NRS (0-10) in a sitting position following the procedure” value in experiment [3] (on average 2 infiltrations, pre-procedure mean 7.0, P=0.002) was 5.55. The “mean pain NRS (0-10) in a horizontal position following the procedure” value in experiment [3] (pre-procedure mean 6.64, P=0.001) was 4.82. Further, the “mean pain NRS (0-10) standing following the procedure” value in experiment [3] (pre-procedure mean 7.36, P=0.01) is recorded as 5.73.
